Patent US9926297B2, “Bicyclic AZA compounds as muscarinic M1 receptor and/or M4 receptor agonists” (Heptares Therapeutics Limited, priority 2014, dated 2018)

Key:
[1] = biological target: T1, human muscarinic M1 receptor (Homo sapiens, UniProt P11229); experiment: Alphascreen Surefire phospho-ERK1/2 functional assay, M1; format: cell-based; conditions: for EC50: CHO cells stably expressing human M1, phospho-ERK1/2, * = variable results, read-out: pEC50 M1 (converted); for Emax: CHO, read-out: % Emax cf. ACh, M1, CHO cells stably expressing human M1, relative to ACh
T1 sequence (P11229 1-460): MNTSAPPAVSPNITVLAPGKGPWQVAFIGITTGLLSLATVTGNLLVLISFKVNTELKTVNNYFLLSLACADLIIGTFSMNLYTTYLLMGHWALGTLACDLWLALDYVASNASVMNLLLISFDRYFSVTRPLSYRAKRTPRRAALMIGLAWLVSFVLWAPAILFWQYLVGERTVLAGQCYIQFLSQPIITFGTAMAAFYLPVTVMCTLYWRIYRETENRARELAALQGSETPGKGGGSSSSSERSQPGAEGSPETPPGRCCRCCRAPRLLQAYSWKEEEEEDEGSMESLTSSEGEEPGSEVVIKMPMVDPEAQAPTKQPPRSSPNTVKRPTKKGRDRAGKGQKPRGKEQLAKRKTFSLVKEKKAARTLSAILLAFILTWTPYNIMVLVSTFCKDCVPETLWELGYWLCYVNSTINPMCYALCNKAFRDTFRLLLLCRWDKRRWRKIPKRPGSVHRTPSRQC

[2] = biological target: T2, human muscarinic M4 receptor (Homo sapiens, UniProt P08173); experiment: Alphascreen Surefire phospho-ERK1/2 functional assay, M4; format: cell-based; conditions: for EC50: CHO cells stably expressing human M4, phospho-ERK1/2, * = variable results, read-out: pEC50 M4 (converted); for Emax: CHO, read-out: % Emax cf. ACh, M4, CHO cells stably expressing human M4, relative to ACh
T2 construct: expressed in transfected cells
T2 sequence (P08173 1-479): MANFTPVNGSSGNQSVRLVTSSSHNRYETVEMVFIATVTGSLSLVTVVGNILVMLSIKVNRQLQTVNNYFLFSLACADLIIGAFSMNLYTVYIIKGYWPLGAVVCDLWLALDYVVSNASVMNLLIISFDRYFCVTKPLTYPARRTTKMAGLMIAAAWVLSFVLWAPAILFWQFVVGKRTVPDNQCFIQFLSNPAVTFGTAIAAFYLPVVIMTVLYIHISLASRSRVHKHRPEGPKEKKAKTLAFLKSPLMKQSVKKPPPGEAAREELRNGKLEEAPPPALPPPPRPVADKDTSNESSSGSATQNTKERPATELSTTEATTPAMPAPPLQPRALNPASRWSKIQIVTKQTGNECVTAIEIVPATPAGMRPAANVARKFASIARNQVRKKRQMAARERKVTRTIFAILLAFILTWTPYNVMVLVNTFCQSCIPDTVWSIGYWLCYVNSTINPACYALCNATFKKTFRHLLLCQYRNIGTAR
Description: CHO cells stably expressing the human muscarinic M1, M2, M3 or M4 receptor were plated (25K/well) onto 96-well tissue culture plates in MEM-alpha+10% dialysed FBS. Once adhered, cells were serum-starved overnight. Agonist stimulation was performed by the addition of 5 μL agonist to the cells for 5 min (37° C.). Media was removed and 50 μL of lysis buffer added. After 15 min, a 4 μL sample was transferred to 384-well plate and 7 μL of detection mixture added. Plates were incubated for 2 h with gentle agitation in the dark and then read on a PHERAstar plate reader.
pEC50 and Emax figures were calculated from the resulting data for each receptor subtype.

[3] = biological target: T3, human muscarinic M2 receptor (Homo sapiens, UniProt P08172); experiment: Alphascreen Surefire phospho-ERK1/2 functional assay, M2; conditions: for Emax: CHO, read-out: % Emax cf. ACh, M2, CHO cells stably expressing human M2, relative to ACh
T3 sequence (P08172 1-466): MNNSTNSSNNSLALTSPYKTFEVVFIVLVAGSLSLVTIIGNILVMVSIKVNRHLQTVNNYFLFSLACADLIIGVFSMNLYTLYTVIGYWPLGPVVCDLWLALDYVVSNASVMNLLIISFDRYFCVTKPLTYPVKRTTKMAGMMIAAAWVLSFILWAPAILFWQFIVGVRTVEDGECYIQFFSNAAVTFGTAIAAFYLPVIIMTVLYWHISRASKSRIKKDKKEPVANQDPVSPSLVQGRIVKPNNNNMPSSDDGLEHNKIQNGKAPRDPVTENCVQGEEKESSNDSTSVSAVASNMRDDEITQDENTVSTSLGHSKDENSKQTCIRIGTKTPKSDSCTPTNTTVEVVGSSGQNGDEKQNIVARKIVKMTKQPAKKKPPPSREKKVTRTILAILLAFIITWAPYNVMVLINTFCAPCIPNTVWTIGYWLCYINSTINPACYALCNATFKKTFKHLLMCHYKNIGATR

[4] = biological target: human muscarinic M3 receptor (Homo sapiens, UniProt P20309); experiment: Alphascreen Surefire phospho-ERK1/2 functional assay, M3; conditions: for Emax: CHO, read-out: % Emax cf. ACh, M3, CHO cells stably expressing human M3, relative to ACh; for EC50: pEC50 M3, CHO cells stably expressing human M3, phospho-ERK1/2, * = variable results
Sequence of human muscarinic M3 receptor (P20309 whole entry): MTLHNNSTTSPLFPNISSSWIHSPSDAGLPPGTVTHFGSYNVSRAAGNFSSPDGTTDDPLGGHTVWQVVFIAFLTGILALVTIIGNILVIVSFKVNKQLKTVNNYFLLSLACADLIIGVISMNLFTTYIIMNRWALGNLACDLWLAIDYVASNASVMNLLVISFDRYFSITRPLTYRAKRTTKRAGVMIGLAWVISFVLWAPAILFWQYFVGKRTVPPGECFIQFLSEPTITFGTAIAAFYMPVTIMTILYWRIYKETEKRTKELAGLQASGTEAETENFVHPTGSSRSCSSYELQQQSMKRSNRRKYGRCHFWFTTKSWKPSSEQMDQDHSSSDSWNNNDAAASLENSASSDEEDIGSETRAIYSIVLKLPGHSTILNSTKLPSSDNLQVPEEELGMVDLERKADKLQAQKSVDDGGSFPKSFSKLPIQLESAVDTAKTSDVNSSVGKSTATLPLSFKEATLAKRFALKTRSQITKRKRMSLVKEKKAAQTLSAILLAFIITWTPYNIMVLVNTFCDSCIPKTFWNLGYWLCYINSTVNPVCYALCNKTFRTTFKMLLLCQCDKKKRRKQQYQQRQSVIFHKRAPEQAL

| SMILES | EC50 [1] | Emax [1] | EC50 [2] | Emax [2] | EC50 [3] | Emax [3] | Emax [4] | EC50 [4] |
| --- | --- | --- | --- | --- | --- | --- | --- | --- |
| CCOC(=O)N1CCC2(CC(N3CCC(c4ncc[nH]4)CC3)C2)C1 (single isomer, unassigned) [1-1 Isomer 2, ethyl 2-[4-(1H-imidazol-2-yl)piperidin-1-yl]-6-azaspiro[3.4]octane-6-carboxylate] | 63.1 nM | 121% | 7.94 nM | 112% | > 20000 nM | 20% | 26% | > 20000 nM |
| CCOC(=O)N1CCC2(CC(N3CCC(c4nc(Cl)c[nH]4)CC3)C2)C1 (single isomer, unassigned) [1-2 Isomer 2, ethyl 2-[4-(4-chloro-1H-imidazol-2-yl)piperidin-1-yl]-6-azaspiro[3.4]octane-6-carboxylate] | 251 nM | 93% | 25.1 nM | 100% | > 20000 nM | 6% | 4% | > 20000 nM |
| CCOC(=O)N1CCC2(CC(N3CCC(c4nc(Cl)c(Cl)[nH]4)CC3)C2)C1 (single isomer, unassigned) [1-5 Isomer 2, ethyl 2-[4-(4,5-dichloro-1H-imidazol-2-yl)piperidin-1-yl]-6-azaspiro[3.4]octane-6-carboxylate] | 126 nM | 94% | 20 nM | 81% | > 20000 nM | 19% | 2% | > 20000 nM |
| COC(=O)N1CCC2(CC(N3CCC(c4nccn4C)CC3)C2)C1 (single isomer, unassigned) [1-6 Isomer 2, methyl 2-[4-(1-methyl-1H-imidazol-2-yl)piperidin-1-yl]-6-azaspiro[3.4]octane-6-carboxylate] | 1260 nM | 128% | 63.1 nM | 71% | > 20000 nM | 57% | 38% | 63.1 nM |
| CCOC(=O)N1CCC2(CC(N3CCC(c4nccn4C)CC3)C2)C1 (single isomer, unassigned) [1-7 Isomer 2, ethyl 2-[4-(1-methyl-1H-imidazol-2-yl)piperidin-1-yl]-6-azaspiro[3.4]octane-6-carboxylate] | 158 nM | 97% | 25.1 nM | 97% | > 20000 nM | 15% | 22% | > 20000 nM |
| CCOC(=O)N1CCC2(CC(N3CCC(c4nccn4C(=O)OCC)CC3)C2)C1 (single isomer, unassigned) [1-8 Isomer 2, ethyl 2-{4-[1-(ethoxycarbonyl)-1H-imidazol-2-yl]piperidin-1-yl}-6-azaspiro[3.4]octane-6-carboxylate] | 316 nM | 76% | 15.8 nM | 98% | > 20000 nM | 34% | 0% | > 20000 nM |
| CCOC(=O)N1CCC2(CC(N3CCC(c4nc(C)cn4C)CC3)C2)C1 (single isomer, unassigned) [1-12 Isomer 2, ethyl 2-[4-(1,4-dimethyl-1H-imidazol-2-yl)piperidin-1-yl]-6-azaspiro[3.4]octane-6-carboxylate] | 1000 nM | 85% | 126 nM | 128% | > 20000 nM | 11% | 15% | > 20000 nM |
| CCOC(=O)N1CCC2(CC(N3CCC(c4ncc(Cl)n4C)CC3)C2)C1 (single isomer, unassigned) [1-14 Isomer 2, ethyl 2-[4-(5-chloro-1-methyl-1H-imidazol-2-yl)piperidin-1-yl]-6-azaspiro[3.4]octane-6-carboxylate] | 631 nM | 66% | 50.1 nM | 99% | > 20000 nM | 27% | 5% | > 20000 nM |
| CCOC(=O)N1CCC2(CC(N3CCC(c4nc(C(F)(F)F)cn4C)CC3)C2)C1 (single isomer, unassigned) [1-15 Isomer 2, ethyl 2-{4-[1-methyl-4-(trifluoromethyl)-1H-imidazol-2-yl]piperidin-1-yl}-6-azaspiro[3.4]octane-6-carboxylate] | 100 nM | 70% |  |  | > 20000 nM | 4% | 6% | > 20000 nM |
| COC(=O)N1CCC2(CC(N3CCC(c4nc(Cl)c(Cl)n4C)CC3)C2)C1 (single isomer, unassigned) [1-16 Isomer 2, methyl 2-[4-(4,5-dichloro-1-methyl-1H-imidazol-2-yl)piperidin-1-yl]-6-azaspiro[3.4]octane-6-carboxylate] | 1580 nM | 80% | 158 nM | 82% | 7940 nM | 34% | 1% | > 20000 nM |
| CCOC(=O)N1CCC2(CC(N3CCC(c4nc(Cl)c(Cl)n4C)CC3)C2)C1 (single isomer, unassigned) [1-17 Isomer 2, ethyl 2-[4-(4,5-dichloro-1-methyl-1H-imidazol-2-yl)piperidin-1-yl]-6-azaspiro[3.4]octane-6-carboxylate] | 631 nM | 53% | 63.1 nM | 90% | > 20000 nM | 14% | 0% | > 20000 nM |
| CCOC(=O)N1CCC2(CC(N3CCC(c4ccn[nH]4)CC3)C2)C1 (single isomer, unassigned) [1-18 Isomer 2, ethyl 2-[4-(1H-pyrazol-5-yl)piperidin-1-yl]-6-azaspiro[3.4]octane-6-carboxylate] | 126 nM | 65% | 50.1 nM | 89% | > 20000 nM | 3% | 56% | > 20000 nM |
| CCOC(=O)N1CCC2(CC(N3CCC(c4ccnn4C)CC3)C2)C1 (single isomer, unassigned) [1-21 Isomer 2, ethyl 2-[4-(1-methyl-1H-pyrazol-5-yl)piperidin-1-yl]-6-azaspiro[3.4]octane-6-carboxylate] | > 20000 nM | 11% | 39.8 nM |  | > 20000 nM |  |  | > 20000 nM |
| CCOC(=O)N1CCC2(CC(N3CCC(N4CCCC[C@@H]4C(=O)N(C)C)CC3)C2)C1 (single isomer, unassigned) [4-17 Isomer 2] | > 20000 nM | 27% | 251 nM | 106% |  |  |  |  |
| CCOC(=O)N1CCC2(CC(N3CCC(N4CCCC[C@H]4C(=O)NC)CC3)C2)C1 (single isomer, unassigned) [4-18 Isomer 2] | 3160 nM | 76% | 631 nM | 79% |  |  |  |  |
| CCOC(=O)N1CCC2(CC(N3CCC(C4CCCCN4C(=O)CC)CC3)C2)C1 (single isomer, unassigned) [4-19 Isomer 2, ethyl 2-(1-propanoyl-2,4′-bipiperidin-1′-yl)-6-azaspiro[3.4]octane-6-carboxylate] | > 20000 nM | 7% | 251 nM | 38% |  |  |  |  |
| CCOC(=O)N1CCC2(CC(N3CCC(C4CCCCN4C(=O)NC)CC3)C2)C1 (single isomer, unassigned) [4-20 Isomer 2, ethyl 2-[1-(methylcarbamoyl)-2,4′-bipiperidin-1′-yl]-6-azaspiro[3.4]octane-6-carboxylate] | > 20000 nM | 11% | 158 nM | 34% |  |  |  |  |
